Species: Rattus norvegicus
Assay: Open TG-GATES - Regimen: Single
Type: toxicity, organism-based, Sprague-Dawley
Parameters: regimen Single, gender Male, age 6 weeks
Conditions: in vivo, po, 400 mg/kg, route gavage, dose level High; for APTT / Bas / Eos / Fbg / Hb / Ht / Lym / MCH / MCHC / MCV / Mono / Neu / PT / Plat / RBC / Ret / WBC: tissue Blood; for KIDNEY_L / KIDNEY_R / KIDNEY_TOTAL: tissue Kidney; for LIVER: tissue Liver; for A/G / ALP / ALT / AST / BUN / CRE / Ca / Cl / DBIL / GLC / IP / K / LDH / Na / PL / RALB / TBIL / TC / TG / TP / gamma-GTP: tissue Plasma

Compound COc1ccc(Cc2nccc3cc(OC)c(OC)cc23)cc1OC [PAPAVERINE] has a TERMINAL_BW (3 h) of 228.2 g, an APTT (3 h) of 23.4 s and a Bas (3 h) of 0%. The Eos (3 h) was 1%, the Fbg (3 h) was 306.8 mg/dL and the Hb (3 h) was 13.4 g/dL. It also gave a Ht (3 h) of 40.3%, a Lym (3 h) of 79% and an MCH (3 h) of 20.7 pg. The MCHC (3 h) was 33.3%, the MCV (3 h) was 62 fL and the Mono (3 h) was 2.4%. For the same compound, the Neu (3 h) was 16.2%, the PT (3 h) was 15.7 s and the Plat (3 h) was 119 x10_4/uL. It also gave an RBC (3 h) of 649.8 x10_4/ul, a Ret (3 h) of 7.4% and a WBC (3 h) of 64.1 x10_2/uL. It also gave a KIDNEY_L (3 h) of 1 g, a KIDNEY_R (3 h) of 1 g and a KIDNEY_TOTAL (3 h) of 2 g. It also gave an LIVER (3 h) of 9.9 g, an A/G (3 h) of 1.2 and an ALP (3 h) of 1181 IU/L. For the same compound, the ALT (3 h) was 39 IU/L, the AST (3 h) was 66.8 IU/L and the BUN (3 h) was 11.4 mg/dL. It also gave a CRE (3 h) of 0.1 mg/dL, a Ca (3 h) of 10.8 mg/dL and a Cl (3 h) of 107.2 meq/L. For the same compound, the DBIL (3 h) was 0 mg/dL, the GLC (3 h) was 199.4 mg/dL and the IP (3 h) was 9.7 mg/dL. It also gave a K (3 h) of 4.1 meq/L, an LDH (3 h) of 182 IU/L and a Na (3 h) of 140.2 meq/L. The PL (3 h) was 124 mg/dL, the RALB (3 h) was 2.9 g/dL and the TBIL (3 h) was 0.014 mg/dL. The TC (3 h) was 75.2 mg/dL, the TG (3 h) was 34 mg/dL and the TP (3 h) was 5.4 g/dL. It also gave a gamma-GTP (3 h) of 2.4 IU/L, a TERMINAL_BW (6 h) of 223.8 g and an APTT (6 h) of 22 s. It also gave a Bas (6 h) of 0%, an Eos (6 h) of 0.8% and a Fbg (6 h) of 310.8 mg/dL. It also gave a Hb (6 h) of 13.1 g/dL, a Ht (6 h) of 40% and a Lym (6 h) of 78%. For the same compound, the MCH (6 h) was 20.6 pg, the MCHC (6 h) was 32.9% and the MCV (6 h) was 62.7 fL. The Mono (6 h) was 3.6%, the Neu (6 h) was 16.6% and the PT (6 h) was 16 s. For the same compound, the Plat (6 h) was 119.2 x10_4/uL, the RBC (6 h) was 639 x10_4/ul and the Ret (6 h) was 7.8%. The WBC (6 h) was 84 x10_2/uL, the KIDNEY_L (6 h) was 1 g and the KIDNEY_R (6 h) was 1 g. For the same compound, the KIDNEY_TOTAL (6 h) was 1.9 g, the LIVER (6 h) was 9.2 g and the A/G (6 h) was 1.2. It also gave an ALP (6 h) of 1322.6 IU/L, an ALT (6 h) of 36 IU/L and an AST (6 h) of 73.6 IU/L. The BUN (6 h) was 7.6 mg/dL, the CRE (6 h) was 0.1 mg/dL and the Ca (6 h) was 11.2 mg/dL. The Cl (6 h) was 107.4 meq/L, the DBIL (6 h) was 0.006 mg/dL and the GLC (6 h) was 178.4 mg/dL. The IP (6 h) was 10.2 mg/dL, the K (6 h) was 4.3 meq/L and the LDH (6 h) was 151.4 IU/L. For the same compound, the Na (6 h) was 140.6 meq/L, the PL (6 h) was 125.2 mg/dL and the RALB (6 h) was 2.9 g/dL. The TBIL (6 h) was 0.036 mg/dL, the TC (6 h) was 75 mg/dL and the TG (6 h) was 38.4 mg/dL. It also gave a TP (6 h) of 5.3 g/dL, a gamma-GTP (6 h) of 2 IU/L and a TERMINAL_BW (9 h) of 221.7 g. For the same compound, the APTT (9 h) was 23 s, the Bas (9 h) was 0% and the Eos (9 h) was 0.8%. It also gave a Fbg (9 h) of 313.2 mg/dL, a Hb (9 h) of 13.5 g/dL and a Ht (9 h) of 40.5%. It also gave a Lym (9 h) of 75%, an MCH (9 h) of 20.8 pg and an MCHC (9 h) of 33.3%. The MCV (9 h) was 62.5 fL, the Mono (9 h) was 2.2% and the Neu (9 h) was 21%. The PT (9 h) was 16.2 s, the Plat (9 h) was 120.5 x10_4/uL and the RBC (9 h) was 648.2 x10_4/ul. It also gave a Ret (9 h) of 7.3%, a WBC (9 h) of 73.1 x10_2/uL and a KIDNEY_L (9 h) of 1 g. For the same compound, the KIDNEY_R (9 h) was 1 g, the KIDNEY_TOTAL (9 h) was 2 g and the LIVER (9 h) was 8.5 g. For the same compound, the A/G (9 h) was 1.3, the ALP (9 h) was 1235.8 IU/L and the ALT (9 h) was 26.8 IU/L. For the same compound, the AST (9 h) was 64 IU/L, the BUN (9 h) was 7.8 mg/dL and the CRE (9 h) was 0.1 mg/dL. For the same compound, the Ca (9 h) was 10.9 mg/dL, the Cl (9 h) was 108.6 meq/L and the DBIL (9 h) was 0.008 mg/dL. For the same compound, the GLC (9 h) was 180.2 mg/dL, the IP (9 h) was 9.5 mg/dL and the K (9 h) was 4.3 meq/L. For the same compound, the LDH (9 h) was 160 IU/L, the Na (9 h) was 139.8 meq/L and the PL (9 h) was 123.2 mg/dL. The RALB (9 h) was 2.9 g/dL, the TBIL (9 h) was 0.036 mg/dL and the TC (9 h) was 68.2 mg/dL. The TG (9 h) was 33.4 mg/dL, the TP (9 h) was 5.3 g/dL and the gamma-GTP (9 h) was 1.6 IU/L. For the same compound, the TERMINAL_BW (24 h) was 240 g, the APTT (24 h) was 21.2 s and the Bas (24 h) was 0%. It also gave an Eos (24 h) of 0.8%, a Fbg (24 h) of 339.6 mg/dL and a Hb (24 h) of 13 g/dL. The Ht (24 h) was 39%, the Lym (24 h) was 78.2% and the MCH (24 h) was 20.8 pg. It also gave an MCHC (24 h) of 33.4%, an MCV (24 h) of 62.1 fL and a Mono (24 h) of 2.6%. It also gave a Neu (24 h) of 17.2%, a PT (24 h) of 15.7 s and a Plat (24 h) of 113.2 x10_4/uL. For the same compound, the RBC (24 h) was 627.8 x10_4/ul, the Ret (24 h) was 6.6% and the WBC (24 h) was 86.7 x10_2/uL. For the same compound, the KIDNEY_L (24 h) was 1 g, the KIDNEY_R (24 h) was 1 g and the KIDNEY_TOTAL (24 h) was 2 g. The LIVER (24 h) was 11.4 g, the A/G (24 h) was 1.3 and the ALP (24 h) was 1398.4 IU/L. The ALT (24 h) was 41.2 IU/L, the AST (24 h) was 66.6 IU/L and the BUN (24 h) was 14 mg/dL. For the same compound, the CRE (24 h) was 0.1 mg/dL, the Ca (24 h) was 10.9 mg/dL and the Cl (24 h) was 106 meq/L. For the same compound, the DBIL (24 h) was 0 mg/dL, the GLC (24 h) was 186.8 mg/dL and the IP (24 h) was 7.5 mg/dL. For the same compound, the K (24 h) was 4 meq/L, the LDH (24 h) was 153.2 IU/L and the Na (24 h) was 143.4 meq/L. The PL (24 h) was 149.8 mg/dL, the RALB (24 h) was 3.1 g/dL and the TBIL (24 h) was 0.008 mg/dL. For the same compound, the TC (24 h) was 82 mg/dL, the TG (24 h) was 125.8 mg/dL and the TP (24 h) was 5.4 g/dL. For the same compound, the gamma-GTP (24 h) was 2 IU/L.

Source: ChEMBL document CHEMBL3885861, “Open TG-GATES”
